# Assay results: patent US8212104B2, “Model of experimentally induced chronic pain and uses thereof” (The Board of Regents of the University of Texas System, priority 2008, dated 2012)
# “Also recorded” adds a separate entry of the source.
# Legend:
# [1] = system: peripheral nerve injury sheep model; experiment: Mechanical hyperalgesia (pin-prick test) after intrathecal morphine in the peripheral nerve injury sheep model; format: in vivo
# Procedure: Adult female merino sheep weighing 40-60 kg were used to produce the peripheral nerve injury sheep model. All experimental procedures were approved by the Institutional of Animal Care and Use Committee at the University of Texas Medical Branch and were in accordance with the guidelines of National Institutes of Health and of the International Association for the study of Pain (IASP).
# Sheep were fasted for 24 hours prior to surgery. General anesthesia was given followed by 600 mg IM injection of ketamine. An intravenous line was placed in the external jugular and the sheep received an additional 200 mg of ketamine IV and a prophylactic dose of cefazolin 1 g IV. After intubation, the sheep were maintained on 2% isoflurane in oxygen and mechanically ventilated. The sheep received IV fluids (0.9% Normal Saline). Body temperature was maintained with a circulating water pad. Oxygen saturation was monitored and maintained between 98-100%. Heart rate and blood pressure remained within normal limits and required no adjustments. Sheep was positioned prone with hind limbs positioned cephalad beside the abdomen. A positioning pillow was placed under the chest, raising the head and chest and allowing a lordotic curve of the lumbar spine. The sheep was loosely secured to the operating table. The lumbrosacral area was sterilely prepped with betadine and draped. A vertical midline incision was made over the L-6 to S-2 vertebrae. The spinous processes of L6 and S1 were partially resected to allow greater exposure of the dura. A purse string of 7-O nylon was placed in the dura, the dura carefully lifted and nicked. A RACZ epidural catheter (16 Ga×36) catheter with snaplock catheter/syringe adapter was placed into the subarachnoid space and advanced until the 10 cm mark was at the opening of the dura. Once CSF flow through the catheter was confirmed, the dura was pulled close to the catheter with the purse string and the catheter was secured to the muscle fascia. The dura, muscle fascia, and skin were closed. The catheter was looped and secured subcutaneously. The catheter was then tunneled and secured to the skin of the sheep with suture. The sheep was allowed 5 days to recover and was tested for neurologic deficits. Animals with neurologic deficits were sacrificed.
# (§1) After the placement of an intrathecal catheter and the documentation of a lack of any neurological deficits, common peroneal nerve injury surgery was performed. As described previously, the sheep was premedicated with intramuscular ketamine, intubated and mechanically ventilated. The sheep was positioned laterally and the hind leg was sterilely prepared and draped. A vertical incision was made mid-thigh. The semimembranous and semitendinous muscle bellies were separated to expose the common peroneal nerve and tibial nerve. The common peroneal nerve was ligated with 2-0 silk suture and cut distally. A 1-cm segment was removed from the distal stump to prevent re-growth. Fascia and skin were closed.
# With the sheep in the stanchion, a pin-prick test was performed using a 300 gram von-frey filament. […] The duration of hindlimb withdrawal was recorded^14.
# Three weeks after peroneal nerve injury, the analgesic effect of morphine was measured. […]
# Baseline withdrawal thresholds to mechanical stimulation were measured prior to morphine administration and at ten-minute intervals post-morphine. The anti-nociceptive effect of morphine time course was determined by measuring the pin-prick frequency every 10-min after intrathecal administration. […]
# [2] = system: peripheral nerve injury sheep model; experiment: Mechanical allodynia (hindlimb withdrawal threshold, von Frey filaments) after intrathecal morphine in the peripheral nerve injury sheep model; format: in vivo; settings: intrathecal morphine sulfate 50 to 1200 micrograms, three weeks after peripheral nerve injury
# Procedure: as §1, with “closed. […]” for “closed.”
# Based on the response to the first von-frey stimuli presented the following stimulus was increased if a negative or null response or decreased if there was a positive response. The 50% response threshold was calculated using the formula: 50% g threshold=(10^[x^f^+κδ]/10,000. The 50% withdrawal thresholds to von-frey filaments were used to assess the behavior change. To avoid inter-observer variability, one investigator did the majority of behavioral experiments. Additionally, each sheep did only one behavioral test per day.
# Baseline withdrawal thresholds to mechanical stimulation were measured prior to morphine administration and at ten-minute intervals post-morphine. […]
# [3] = 200 micrograms intrathecal, measured by pin prick
# [4] = intrathecal 2 to 1200 micrograms, three weeks after peroneal nerve injury, 30 minutes after drug delivery
smiles,measurement,setting,value
CN1CC[C@]23c4c5ccc(O)c4O[C@H]2[C@@H](O)C=C[C@H]3[C@H]1C5 [morphine],duration of analgesia,[1]; [3],> 120 min
same,time of peak analgesia,[1]; [3],30 min
same,"reduction in efficacy, ipsilateral compared to contralateral dose response curve",[1]; [4],approximately 4 fold
same,"reduction in potency, ipsilateral compared to contralateral dose response curve",[1]; [4],approximately 2 fold
same,analgesic effect after nerve injury / injured versus contralateral hindlimb (in words),"[1]; intrathecal, ipsilateral (nerve injured) vs contralateral (non-injured) hindlimb",significantly reduced; also recorded: much less analgesia; also recorded: more potency on the contralateral
same,"hindlimb withdrawal threshold, reversal (contralateral hindlimb)",[2],completely reversed
same,increase of hindlimb withdrawal threshold on the ipsilateral hindlimb,[2],36%
